US20230372277A1, “COMPOSITION FOR PROMOTING HAIR GROWTH AND/OR INHIBITING HAIR LOSS” (priority 2020, published 2023)
Marks after values point to notes of the source that are not given here.

How the values were obtained:
testosterone = experiment: Testosterone concentration in plasma (ELISA kit) of testosterone-injected rats; format: in vivo, male wistar albino rats; settings: for concentration of testosterone in plasma (FIG. 4a): testosterone-injected rats, compounds or mixture oral 10 mg/kg daily 21 days
Method: (§1) For 21 days, the testosterone solution and broccoli extract, avocado extract or broccoli and avocado extract were administered, and on the next day, before skin samples were collected, plasma from rats was extracted and the concentration of testosterone and DHT were measured using a testosterone and DHT ELISA kit (Arigo Biolaboratories, Taiwan) according to the manufacturer's instructions.

[1] = system: dihydrotestosterone (DHT); experiment: DHT concentration in plasma (ELISA kit) of testosterone-injected rats; format: in vivo, male wistar albino rats; settings: for concentration of DHT in plasma (FIG. 4b): testosterone-injected rats, compounds or mixture oral 10 mg/kg daily 21 days
Method: as §1

hair follicles [2] = experiment: Shape and length of hair follicles in haematoxylin and eosin stained dorsal skin; format: in vivo, male wistar albino rats; settings: testosterone-injected rats; for length of hair follicles (FIG. 5): compounds or mixture oral 10 mg/kg daily 21 days, compared to negative control (negative control compared to normal group)
Method: By staining the skin tissue of experimental animals, the shape change of hair follicles was investigated. […] After 24 hours, the skin sample was soaked in paraffin wax and sectioned to a uniform thickness of 10 μm, and hair follicles were stained with haematoxylin and eosin.

hair follicles [3] = experiment: Density of hair follicles in skin (number in 1 mm^2); format: in vivo, male wistar albino rats; settings: testosterone-injected rats; for Rate of change compared to normal group (%) (density of hair follicles): Table 7, Equation 1, compounds or mixture oral 10 mg/kg daily 21 days
Method: The density of hair follicles was measured by counting the number of hair follicles in a unit area (1 mm^2).
Rate of change compared to normal group=(hair follicle density of negative control group or experimental group−hair follicle density of normal group)/hair follicle density of normal group (Equation 1)
(§2) The normal control group (control; normal group) is a group in which neither testosterone nor the extract is administered, and the negative control group (Testosterone; T) is a group in which only testosterone is administered.
as §2
as §2, with “As a comparative group, the mixture was administered by the same method, and the administration method was a method of intraperitoneal administration (IP). The” for “The”

hair follicles [4] = experiment: Ratio of anagen stage and telogen stage of hair follicles in skin; settings: for Rate of change compared to normal group (anagen/telogen ratio) / Anagen/telogen ratio / Anagen / Telogen: testosterone-injected rats
Method: Male wistar albino rats weight 180 to 240 g, February to March age were bred under the conditions of a constant light-dark cycle in which light was applied from 8 am to 8 pm, a temperature of 22 to 25° C., and a relative humidity of 60%. For the feed of experimental animals, a general pellet dry feed was used, and feed and water were allowed to be consumed at all times.
In addition, the broccoli extract and/or avocado extract prepared in Example 1 were orally administered for a total of 21 days daily so as to be a dose of 100 mg per 1 kg of the body weight of each experimental animal (in case of coadministration group, broccoli extract 67 mg/kg+avocado extract 33 mg/kg).
Rate of change compared to normal group=(anagen/telogen ratio of negative control group or experimental group−anagen/telogen ratio of normal group)/anagen/telogen ratio of normal group (Equation 2)

[5] = Table 7, compounds or mixture (SFN 8 + I3C 1 + β-sitosterol 1 mg/kg) oral 10 mg/kg daily 21 days, mean ± SEM, n = 15
[6] = Table 8, Equation 2, compounds or mixture oral 10 mg/kg daily 21 days
[7] = Table 8, compounds or mixture oral 10 mg/kg daily 21 days
[8] = rats injected s.c. with testosterone 21 days, extracts oral 100 mg/kg daily 21 days (mixture BE 67 + AE 33 mg/kg), negative control compared to normal group
[9] = Table 8, compounds or mixture oral 10 mg/kg daily 21 days, listed as Group B, 10 mg/kg
[10] = Table 8, compounds or mixture oral 10 mg/kg daily 21 days, listed as testosterone solution, 10 mg/kg

**Q.** What does the source list for `C[S+]([O-])CCCCN=C=S` (stereo not drawn) [sulforaphane]?
**A.** concentration of testosterone in plasma (FIG. 4a) (testosterone): significantly reduced; concentration of DHT in plasma (FIG. 4b) [1]: significantly reduced; length of hair follicles (FIG. 5) (hair follicles [2]): increased; Rate of change compared to normal group (%) (density of hair follicles) (hair follicles [3]; 10 mg/kg): about 47%; Rate of change compared to normal group (%) (density of hair follicles) (hair follicles [3]; listed as Group C, 10 mg/kg): +47.33%; Density of hair follicles (hair follicles [3]; [5]): 1.93 ± 0.102; Rate of change compared to normal group (anagen/telogen ratio) (hair follicles [4]; [6]): −47.05%; Anagen/telogen ratio (hair follicles [4]; [7]): 1.03*

**Q.** `OCc1c[nH]c2ccccc12` [indole-3-carbinol] was tested. Which “concentration of testosterone in plasma (FIG. 4a)” value (testosterone) did it give?
**A.** significantly reduced

**Q.** And the “concentration of DHT in plasma (FIG. 4b)” value [1]?
**A.** significantly reduced

**Q.** What about the “length of hair follicles (FIG. 5)” value (hair follicles [2]) of the same molecule?
**A.** increased

**Q.** And the “Rate of change compared to normal group (%) (density of hair follicles)” value (“Rate of change … (%) (density of hair follicles)” below) (hair follicles [3]; 10 mg/kg)?
**A.** about 21%

**Q.** And the “Rate of change … (%) (density of hair follicles)” value (hair follicles [3]; listed as Group D, 10 mg/kg)?
**A.** +21.37%

**Q.** What about the “Density of hair follicles” value (hair follicles [3]; [5]) of the same molecule?
**A.** 1.59 ± 0.74

**Q.** What about the “Rate of change compared to normal group (anagen/telogen ratio)” value (from here on “Rate of change … (anagen/telogen ratio)”) (hair follicles [4]; [6]) of the same molecule?
**A.** −54.88%

**Q.** What about the Anagen/telogen ratio (hair follicles [4]; [7]) of the same molecule?
**A.** 0.87*

**Q.** With `C[C@]12CC[C@H]3[C@@H](CCC4=CC(=O)CC[C@@]43C)[C@@H]1CC[C@@H]2O` [Testosterone, testosterone] as the molecule, how does the “concentration of testosterone in plasma (FIG. 1a)” value (testosterone; [8]) read?
**A.** largely increased

**Q.** And the “concentration of testosterone in plasma (FIG. 4a)” value (testosterone)?
**A.** largely increased

**Q.** And the “concentration of DHT in plasma (FIG. 1b)” value [1, 8]?
**A.** largely increased

**Q.** What about the “concentration of DHT in plasma (FIG. 4b)” value [1] of the same molecule?
**A.** largely increased

**Q.** What about the “length of hair follicles (FIG. 5)” value (hair follicles [2]) of the same molecule?
**A.** largely reduced

**Q.** What about the “shape change of hair follicles (stained photograph, FIG. 2)” value (hair follicles [2]; extracts oral 100 mg/kg daily 21 days, H&E stained dorsal skin) of the same molecule?
**A.** many hair follicles in the telogen stage were found

**Q.** What about the “length of hair follicles (FIG. 3)” value (hair follicles [2]; extracts oral 100 mg/kg daily 21 days, extracts compared to negative control, negative control compared to normal group) of the same molecule?
**A.** largely reduced

**Q.** What about the “Rate of change compared to normal group (hair follicle density)” value (hair follicles [3]; Table 2, Equation 1, extracts oral 100 mg/kg daily 21 days) of the same molecule?
**A.** −30.53%

**Q.** And the Hair follicle density (hair follicles [3]; Table 2, number of hair follicles in 1 mm^2, extracts oral 100 mg/kg daily 21 days, mean ± SEM, n = 15)?
**A.** 0.91 ± 0.069

**Q.** And the Hair follicle density (hair follicles [3]; Table 5, broccoli extracts by extraction solvent, same method as Example 3-2, mean ± standard error)?
**A.** 0.98 ± 0.23

**Q.** And the “Rate of change … (%) (density of hair follicles)” value (hair follicles [3])?
**A.** −30.53%

**Q.** And the “Density of hair follicles” value (hair follicles [3]; [5])?
**A.** 0.91 ± 0.069

**Q.** What about the “Rate of change compared to normal group (density of hair follicles)” value (hair follicles [3]; Table 9, Equation 1, mixtures at various mixing ratios, oral 10 mg/kg in total daily 21 days) of the same molecule?
**A.** −21.6%

**Q.** What about the “Density of hair follicles” value (hair follicles [3]; Table 9, SFN:I3C:β-sitosterol mixtures at various mixing ratios, oral 10 mg/kg in total daily 21 days, mean ± standard error) of the same molecule?
**A.** 0.98 ± 0.23

**Q.** And the “Rate of change … (anagen/telogen ratio)” value (hair follicles [4]; Table 3, Equation 2, extracts oral 100 mg/kg daily 21 days)?
**A.** −91.23%

**Q.** And the Anagen (hair follicles [4]; Table 3, hair follicles in anagen stage, extracts oral 100 mg/kg daily 21 days, listed as Group 2, 100 mg/kg)?
**A.** 14.6

**Q.** What about the Anagen (hair follicles [4]; Table 3, hair follicles in anagen stage, extracts oral 100 mg/kg daily 21 days, listed as testosterone solution, 100 mg/kg) of the same molecule?
**A.** reduced

**Q.** What about the Telogen (hair follicles [4]; Table 3, hair follicles in telogen stage, extracts oral 100 mg/kg daily 21 days, listed as Group 2, 100 mg/kg) of the same molecule?
**A.** 85.4

**Q.** What about the Telogen (hair follicles [4]; Table 3, hair follicles in telogen stage, extracts oral 100 mg/kg daily 21 days, listed as testosterone solution, 100 mg/kg) of the same molecule?
**A.** increased

**Q.** What about the Anagen/telogen ratio (hair follicles [4]; Table 3, extracts oral 100 mg/kg daily 21 days) of the same molecule?
**A.** 0.171

**Q.** And the “Rate of change … (anagen/telogen ratio)” value (hair follicles [4]; [6])?
**A.** −91.23%

**Q.** And the Anagen/telogen ratio (hair follicles [4]; [7])?
**A.** 0.17

**Q.** What about the Anagen (hair follicles [4]; [9]) of the same molecule?
**A.** 14.6

**Q.** What about the Telogen (hair follicles [4]; [9]) of the same molecule?
**A.** 85.4

**Q.** And the Anagen (hair follicles [4]; [10])?
**A.** reduced

**Q.** And the Telogen (hair follicles [4]; [10])?
**A.** increased

**Q.** And the “anagen/telogen ratio reduced compared to the normal group” value (hair follicles [4]; negative control group administered only with the testosterone solution s.c. 21 days)?
**A.** about 91%

**Q.** For `CC[C@H](CC[C@@H](C)[C@H]1CC[C@H]2[C@@H]3CC=C4C[C@@H](O)CC[C@]4(C)[C@H]3CC[C@]12C)C(C)C` [β-sitosterol], which “concentration of DHT in plasma (FIG. 4b)” value [1] is on record?
**A.** significantly reduced

**Q.** What about the “length of hair follicles (FIG. 5)” value (hair follicles [2]) of the same molecule?
**A.** increased

**Q.** What about the “Rate of change … (%) (density of hair follicles)” value (hair follicles [3]; 10 mg/kg) of the same molecule?
**A.** about 68%

**Q.** And the “Rate of change … (%) (density of hair follicles)” value (hair follicles [3]; listed as Group E, 10 mg/kg)?
**A.** +67.56%

**Q.** What about the “Density of hair follicles” value (hair follicles [3]; [5]) of the same molecule?
**A.** 2.195 ± 0.093
